Experimental data published in patent publication US9670200B2, “Quaternary ammonium salt prodrugs” (Alkermes Pharma Ireland Limited, priority 2010, dated 2017).
Where two headings read alike, the source gives them in different places.

Legend:
[1] = Pharmacokinetic evaluation of asenapine and asenapine prodrugs in rats; type: in vivo, Sprague-Dawley rats; conditions: rat, 10 mg/rat IM
Protocol: Animals: 18 Male Sprague-Dawley rats (Charles River Laboratories, Wilmington, Mass.) were used in the study. Three groups of 6 rats were used and are referred to in this study as Groups A, B and C. Rats were approximately 350-375 g at time of arrival. Rats are housed 2 per cage with ad libitum chow and water. Environmental conditions in the housing room: 64-67° F., 30% to 70% relative humidity, and 12:12-h light: dark cycle. All experiments were approved by the institutional animal care and use committee.
Test Compounds: The following formulations of Asenapine parent drug and prodrug compounds of the invention were used in the study.
Pharmacokinetics study: Rats were dosed IM by means of a 23 gauge, 1 in. needle with 1 cc syringe 0.3 mL suspension was withdrawn from the vial containing the test compound. The rat was injected in the muscles of the hind limb after anesthesia with isoflurane. Blood samples were collected via a lateral tail vein after brief anesthesia with Isoflurane. A 271/2 G needle and 1 cc syringe without an anticoagulant was used for the blood collection. Approximately 350 μL of whole blood was collected at each sampling time point of 6 hours, 24 hours and 2, 5, 7, 9, 12, 14, 21, 28, 35 days after administration. Once collected, whole blood was immediately transferred to tubes containing K2 EDTA, inverted 10-15 times and immediately placed on ice. The tubes were centrifuged for 2 minutes at >14,000 g′ s (11500 RPMs using Eppendorf Centrifuge 5417C, F45-30-11 rotor) at room temperature to separate plasma. Plasma samples were transferred to labeled plain tubes (MICROTAINER®; MFG# BD5962) and stored frozen at <−70° C.
Drug concentrations in plasma samples were analyzed by liquid chromatography-mass spectroscopy using appropriate parameters for each compound. Half-life, volume of distribution, clearance, maximal concentration, and AUC were calculated by using WinNonlin version 5.2 software (Pharsight, St. Louis, Mo.).

[2] = Text: At pH 4 and 5, 0.1 M citrate buffers were used, while for pH 6, 7 and 8a set of 0.1 M phosphate buffers were used. Each buffer also contained 0.2 M NaCl. No cosolvents or other potentially solubilizing components were included. Buffer preparations were subdivided in order to individually test the solubility of only one material in a given buffer sample.
[3] = Solution stability of asenapine prodrugs as a function of pH; type: physicochemical; conditions: 0.01M buffers pH 2.11-9.01 with acetonitrile, 25° C., HPLC at 1, 4, 10, 24 hours; compared with asenapine octanoate (FIGS. 1 and 2)
Protocol: The asenapine derived prodrugs were prepared at approximately 300 ug/mL in buffers with acetonitrile (see table of buffers below). The initial ratio of prodrug/parent was measured using a freshly prepared solution in unbuffered water. Acetonitrile was titrated into all samples as needed to ensure the complete dissolution of the compounds. The amount of acetonitrile varied depending on the solubility of each compound (see Note 1). 1.5 mL of each stability sample was transferred into a HPLC vial and the vials were maintained at 25° C. in the temperature controlled sample compartment of the HPLC. Each sample was assayed by HPLC after 1, 4, 10, and 24 hours for prodrug and asenapine content (see Note 2).
The fraction of prodrug remaining at each time point was calculated as Fraction Prodrug=(HPLC Area of Prodrug)/(HPLC area of prodrug+asenapine)(see Note 3). The loss of prodrug was then fit to the equation for first order decay: Fraction Prodrug=(Initial Fraction prodrug)*e^−kt where t=time (in hours) and k is the rate constant for decay. Finally, the half-lives were calculated as: t1/2=0.693/k
Note 1: The acetonitrile concentration is not expected to have a large impact on the degradation rate since the rate follows first order decay with respect to compound (ie, the rate constant is independent of the concentration). […]

CCC(C)(C)C(=O)OC[N+]1(C)CC2c3ccccc3Oc3ccc(Cl)cc3C2C1.[I-] (stereo not drawn) [Asenapine dimethyl butyrate prodrug, asenapine (α,α)-dimethyl butyrate iodide]
decrease in plasma concentration over all the time points sampled ([1]; 6 hours to 35 days, compared with Asenapine or Asenapine palmitate prodrug): more gradual decrease
duration of asenapine pharmacokinetics in the animals ([1]; compared with Asenapine or Asenapine palmitate prodrug): longer duration

CCCCCCCCCCCCC(C)(C)C(=O)OC[N+]1(C)CCN(C2=Nc3ccccc3Nc3sc(C)cc32)CC1.[I-] [Compound 18, 1-(((2,2-dimethyltetradecanoyl)oxy)methyl)-1-methyl-4-(2-methyl-10H-benzo[b]thieno[2,3-e][1,4]diazepin-4-yl)piperazin-1-ium iodide]
variation in solubility across the pH range studied [2]: less than 2 fold

Cc1cc2c(s1)Nc1ccccc1N=C2N1CCN(C)CC1.O.O=C(O)c1cc2ccccc2c(Cc2c(O)c(C(=O)O)cc3ccccc23)c1O [olanzapine pamoate salt, olanzapine pamoate, reference compound]
variation in solubility across the pH range studied ([2]; room temperature, 0.1 M citrate (pH 4, 5) or phosphate (pH 6, 7, 8) buffers with 0.2 M NaCl, pH range 4-9 (FIG. 4)): > 10 fold

CC(C)(C)C(=O)OC[N+]1(C)CC2c3ccccc3Oc3ccc(Cl)cc3C2C1.[Cl-] (stereo not drawn) [asenapine pivalate, asenapine pivalate prodrug]
Solution stability as a function of pH [3]: more stable

CCC(C)(C)C(=O)OC[N+]1(C)CC2c3ccccc3Oc3ccc(Cl)cc3C2C1.[I-] (stereo not drawn) [ASN-83, 5-chloro-2-(((2,2-dimethylbutanoyl)oxy)methyl)-2-methyl-2,3,3a,12b-tetrahydro-1H-dibenzo[2,3:6,7]oxepino[4,5-c]pyrrol-2-ium iodide]
Cmax of the Asenapine released ([1]; plasma, compared with parent Asenapine formulation and Asenapine palmitate prodrug (FIG. 3)): lower
